Results on one molecule are retold here after PMC12654037, “Norditerpene Natural Products from Subterranean Fungi with Anti-Parasitic Activity” (Microorganisms, 2025).

Where two headings read alike, the source gives them in different places. A value given as a limit tells only on which side of the number the result lay.

Data set [1] relates to G. lamblia WBC6 and CBG99 trophozoites. The data set is described as follows: Giardia lamblia trophozoite growth inhibition assay. The format is cell-based. The procedure: Compound inhibition assay against Giardia lamblia WBC6 and CBG99 trophozoites: Biological replicates of growth inhibition assays were performed using wild-type G. lamblia WBC6 and G. lamblia CBG99 trophozoites at 37 °C under reduced oxygen conditions in a sealed 0.5 mL airtight sterile tube (USA Scientific, Ocala, FL, USA), following the susceptibility assay described below. G. lamblia trophozoites were grown in TYI-S-33 medium supplemented with 10% bovine serum and 0.05 mg/mL bovine bile, as previously described. A 3-fold serial concentration of pure compounds starting at 29 µM was screened against 75,000 cells/mL of parasites in modified TYI-S-33 medium with a final dimethyl sulfoxide (DMSO) concentration of 0.14%. Metronidazole was run in parallel at a final highest concentration of 66.7 µM and 3-fold subsequent serial dilutions. The untreated negative control contained 0.14% of DMSO. Sealable test tubes filled to its maximum volume of 700 µL were used to perform this assay. The test tubes were incubated at 37 °C for 72 h. After incubation, the tubes were chilled on ice, and the reaction was transferred to 96-well plates. In the plate, 50 µL of an ATP binding luminescence marker, CellTiter-Glo (Promega, Madison, WI, USA) or 10 µL of 2.5 mg/mL d-luciferin (GoldBio, St Louis, MO, USA) was added to each well and allowed to develop at room temperature for 10 min [31, 36]. The assay was read and analyzed using an EnVision Plate Reader (Perkin Elmer, Waltham, MA, USA). Response curves and EC50 values (the concentration at which 50% of G. lamblia trophozoite growth was inhibited) were calculated using GraphPad Prism (GraphPad, LaJolla, CA, USA).

For another data set, the system named is HuF fibroblast cell line. As to conditions: cited from earlier work.
The nature of data set [2]: Microsomal stability assay, human. As to conditions: microsomes, pH 7.4. The procedure: (§1) Microsomal stability assay. The in vitro microsomal stability assay was conducted in duplicate in commercially available mouse or human liver microsomes (Sekisui XenoTech, Kansas City, KS, USA), which were supplemented with nicotinamide adenine dinucleotide phosphate (NADPH) as a cofactor. […] The reaction was initiated by the addition of 1 mmol/L NADPH, followed by incubation at 37 °C. A negative control was performed in parallel without NADPH to reveal any chemical instability or non-NADPH dependent enzymatic degradation for each compound. […] At various time points (0, 5, 15, 30, and 60 min), a 40 µL of reaction aliquot was taken and quenched with 120 µL of acetonitrile containing 0.1% formic acid. The samples were then vortexed and centrifuged at 15,000 rpm for 5 min at 4 °C. The supernatants were collected and analyzed by LC-MS/MS to determine the in vitro metabolic half-life (t1/2).

A further data set deals with P. falciparum line Dd2. The data set is described as follows: Plasmodium falciparum growth inhibition assay (SYBR Green I), Dd2.
The test system of the next data set is HCT-8 cells. The data set is described as follows: HCT-8 cytotoxicity assay. The format is cell-based. The procedure: (§2) HCT-8 and HFF cytotoxicity assays: Cytotoxicity of the compounds was determined against both confluent (the conditions of the infection assays) and growing HCT-8 and HFF host cells, as previously described. Cells were seeded into white-sided, clear-bottom 96-well plates and grown to either 40% or 100% confluency. Compounds were added to cells at various concentrations up to 100 µM in a final DMSO concentration of 0.5%. DMSO was run in parallel as a vehicle control. After 48 h, the viability of the cells was determined by either quantification of cellular ATP (Cell-Titer Glo cell viability assay; Promega, Madison WI, USA) or by MTT assay. Viability was determined 24 h after compound addition to HFF cells or 48 h after compound addition to HCT-8 cells or HepG2 cells. The percent cell growth was then calculated with the following formula: % Cell Growth = [RLUcompound/RLUDMSO] × 100. Samples were run in triplicate with two to three biological replicates.

Another data set can be described thus: HCT-8 cytotoxicity assay. The format is cell-based. As to conditions: human; sub-confluent (~40% confluency); read-out: EC50 cytotoxicity against sub-confluent HCT-8 cells. The procedure:
as §2

Another data set deals with P. falciparum 3D7. The experiment in a line: Plasmodium falciparum growth inhibition assay (SYBR Green I), 3D7. The conditions noted are these: 3D7, 72 h, read-out: EC50 3D7(M).
In a further data set the test system is HepG2 human hepatocytes. The experiment in a line: HepG2 cytotoxicity assay (MTS). The format is cell-based. As to conditions: 48 h, mean +/- SD. The procedure: HepG2 cytotoxicity assay: Mammalian cell cytotoxicity was assessed in HepG2 human hepatocytes using an MTS 3-(4,5-dimethylthiazol-2-yl)-5-(3-carboxymethoxyphenyl)-2-(4-sulfophenyl)-2H-tetrazolium)-based cytotoxicity assay. For cytotoxicity testing, ∼2250 cells were seeded into each well of a 384-well microtiter plate and incubated for 24 h. Serial dilutions of the compounds were added in triplicate starting at 25 μM. Cells were further incubated for an additional 48 h at 37 °C in an atmosphere containing 5% CO2. Zero-growth control wells were incubated with 5% Triton X-100 for 5 min prior to MTS addition. Following the addition of MTS to all wells, the plates were incubated for an additional 4 h under the same environmental conditions before taking absorbance measurements. Absorbance values were recorded at 490 nm using a Synergy Neo2 multimode reader (BioTek), and values were normalized based on Triton X-100-lysed and no treatment controls. Samples were run in triplicate in each assay, and the experiments were repeated three times.

In another data set the test system is C. parvum. The data set is described as follows: C. parvum growth inhibition assay (Cp-NLuc-infected HCT-8 cells). The format is cell-based, Cryptosporidium parvum. As to conditions: Cryptosporidium parvum. The procedure: C. parvum growth inhibition assays: The in vitro growth inhibition assay of C. parvum has been previously described. Briefly, clear-bottom, white-sided 96 well plates were seeded with HCT-8 cells. Once the cells reached between 50% and 75% confluency, they were infected with Cp-NLuc oocysts (10,000/well) in complete media containing 0.6% taurocholate. At 24 h post-infection (hpi), the infected cells were treated with compounds at various concentrations. DMSO was used as a vehicle control in parallel. Parasite growth was determined at 72 hpi by measuring relative luminescence units (RLUs) using Promega Nano-Glo substrate (Promega, Madison, WI, USA) and a SpectraMax® L Microplate Reader (Molecular Devices, San Jose, CA, USA). The percent inhibition of parasite growth was calculated as [(RLUDMSO − RLUcompound)/RLUDMSO] × 100.

A short description of data set [3]: Microsomal stability assay, mouse. As to conditions: microsomes, pH 7.4. The procedure:
as §1

Method for P. falciparum 3D7: (§3) Plasmodium falciparum growth inhibition assay: Antiplasmodial EC50 results were determined using a fluorescence-based SYBR Green I assay performed using asynchronous cultures [30, 35]. […] Plates were subsequently frozen at −80 °C to facilitate lysis. […] Relative fluorescence units (RFUs) were normalized based on chloroquine-treated and no treatment controls. Serial dilutions of compounds were prepared in RPMI with final assay conditions of ≤0.2% DMSO. Each assay was conducted in triplicate with three biological replicates.
Method for P. falciparum line Dd2: as §3

With `CO[C@H]1OC(=O)C=C2[C@@]13O[C@@H]3[C@H]1OC(=O)[C@@]3(C)CCC[C@@]2(C)[C@@H]13` [compound 1, oidiolactone A], in data set [1] (72 h), the “activity against G. lamblia (no activity up to)” value is reported as greater than 29 µM. Besides, the EC50 in data set [1] (Giardia duodenalis, read-out: EC50 G. lamblia) is greater than 30 µM; in the data set with P. falciparum line Dd2 (Plasmodium falciparum, DD2, 72 h, read-out: EC50 Dd2 (M)) it was 2.26e-06 ± 4.6e-07 M; in the data set with P. falciparum 3D7, 3.33e-06 ± 6.4e-07 M; in the data set with C. parvum (HCT-8, read-out: EC50 against C. parvum) it was 0.53 µM; with C. parvum (Cp-NLuc-infected HCT-8 cells, 7.5 µM to 117 nM, Figure 2E, read-out: C. parvum EC50) it was 0.529 µM. Also, in the data set with HuF fibroblast cell line, the “cytotoxicity against human fibroblast” value is reported as “no cytotoxicity observed”. In the data set with HuF fibroblast cell line (sub-confluent, ref Rusman et al. 2020 [25]), the “TC50 HuF (sub-confluent)” value is reported as greater than 30 µM. In addition, the half-life at 1 µmol/L in data set [2] was 5.29 ± 0.278 h; in data set [3] it was 1.84 ± 0.0717 h. For the same molecule, the “SI: selectivity index=EC50 HepG2/ EC50 compound” value in the data set on P. falciparum line Dd2 is reported as greater than 11. For the same molecule, in the data set on HCT-8 cells (confluent), the “TC50 HCT-8 (confluent)” value is on record as greater than 30 µM. Further, the “toxicity to host cells (no toxicity up to)” value in the data set with HCT-8 cells (confluent HCT-8, conditions of the infection assay, 48 h, cellular ATP) is greater than 100 µM. Moreover, the “TC50 HCT-8 (sub-confluent)” value in the data set with HCT-8 cells (sub-confluent) is on record as 29.7 ± 1.8 µM. For the same molecule, in the data set “HCT-8 cytotoxicity assay”, the half-maximal effective concentration (EC50) at 48 h is 29.7 µM. Further, in the data set with HepG2 human hepatocytes, the TC50 HepG2 was greater than 25 µM.
